Measured values reported in PMC11277489, “Novel Piperazine Derivatives of Vindoline as Anticancer Agents” (International Journal of Molecular Sciences, 2024).

Key:
[1] = tested on: 60 human tumor cell lines (NCI60); assay: NCI60 one-dose screen (10 μM), whole panel; type: cell-based; details: 10 μM; mean over 60 human cancer cell lines; read-out: Growth percent rate, Mean
TK-10 = assay: NCI60 one-dose screen (10 μM), Renal Cancer; type: cell-based; details: Homo sapiens; 10 μM; TK-10, Renal Cancer; read-out: Growth percent rate
HL-60(TB) = assay: NCI60 one-dose screen (10 μM), Leukemia; type: cell-based; details: Homo sapiens; 10 μM; HL-60(TB), Leukemia; read-out: Growth percent rate
IGROV1 = assay: NCI60 one-dose screen (10 μM), Ovarian Cancer; type: cell-based; details: Homo sapiens, IGROV-1; 10 μM; IGROV1, Ovarian Cancer; read-out: Growth percent rate
U251 = assay: NCI60 one-dose screen (10 μM), CNS Cancer; type: cell-based; details: Homo sapiens, U-251; 10 μM; U251, CNS Cancer; read-out: Growth percent rate
A498 = assay: NCI60 one-dose screen (10 μM), Renal Cancer; type: cell-based; details: Homo sapiens; 10 μM; A498, Renal Cancer; read-out: Growth percent rate
COLO 205 = assay: NCI60 one-dose screen (10 μM), Colon Cancer; type: cell-based, human; details: for activity at 10 µM: Homo sapiens, COLO 205, Colon Cancer, read-out: Growth percent rate
CCRF-CEM = assay: NCI60 one-dose screen (10 μM), Leukemia; type: cell-based; details: Homo sapiens, 10 μM, Leukemia, read-out: Growth percent rate
SK-MEL-28 = assay: NCI60 one-dose screen (10 μM), Melanoma; type: cell-based; details: Homo sapiens; 10 μM; SK-MEL-28, Melanoma; read-out: Growth percent rate
HOP-62 = assay: NCI60 one-dose screen (10 μM), Non-small Cell Lung Cancer; type: cell-based; details: Homo sapiens; 10 μM; HOP-62, Non-small Cell Lung Cancer; read-out: Growth percent rate
OVCAR-8 = assay: NCI60 one-dose screen (10 μM), Ovarian Cancer; type: cell-based; details: Homo sapiens; 10 μM; OVCAR-8, Ovarian Cancer; read-out: Growth percent rate
A549/ATCC = assay: NCI60 one-dose screen (10 μM), Non-small Cell Lung Cancer; type: cell-based; details: Homo sapiens; 10 μM; A549/ATCC, Non-small Cell Lung Cancer; read-out: Growth percent rate
MCF7 = assay: NCI60 one-dose screen (10 μM), Breast Cancer; type: cell-based; details: Homo sapiens; 10 μM; MCF7, Breast Cancer; read-out: Growth percent rate
RPMI-8226 = assay: NCI60 one-dose screen (10 μM), Leukemia; type: cell-based; details: Homo sapiens; 10 μM; RPMI-8226, Leukemia; read-out: Growth percent rate
CAKI-1 = assay: NCI60 one-dose screen (10 μM), Renal Cancer; type: cell-based; details: Homo sapiens; 10 μM; CAKI-1, Renal Cancer; read-out: Growth percent rate
OVCAR-4 = assay: NCI60 one-dose screen (10 μM), Ovarian Cancer; type: cell-based; details: Homo sapiens; 10 μM; OVCAR-4, Ovarian Cancer; read-out: Growth percent rate
ACHN = assay: NCI60 one-dose screen (10 μM), Renal Cancer; type: cell-based; details: Homo sapiens, 10 μM, Renal Cancer, read-out: Growth percent rate
SF-295 = assay: NCI60 one-dose screen (10 μM), CNS Cancer; type: cell-based; details: Homo sapiens; 10 μM; SF-295, CNS Cancer; read-out: Growth percent rate
NCI-H322M = assay: NCI60 one-dose screen (10 μM), Non-small Cell Lung Cancer; type: cell-based; details: Homo sapiens, 10 μM, Non-small Cell Lung Cancer, read-out: Growth percent rate
SK-MEL-5 = assay: NCI60 one-dose screen (10 μM), Melanoma; type: cell-based, human; details: for activity at 10 µM: Homo sapiens, SK-MEL-5, Melanoma, read-out: Growth percent rate
786–0 = assay: NCI60 one-dose screen (10 μM), Renal Cancer; type: cell-based; details: Homo sapiens; 10 μM; 786-0, Renal Cancer; read-out: Growth percent rate
UACC-257 = assay: NCI60 one-dose screen (10 μM), Melanoma; type: cell-based; details: Homo sapiens; 10 μM; UACC-257, Melanoma; read-out: Growth percent rate
SF-539 = assay: NCI60 one-dose screen (10 μM), CNS Cancer; type: cell-based, human; details: Homo sapiens; 10 μM; SF-539, CNS Cancer; read-out: Growth percent rate
MALME-3M = assay: NCI60 one-dose screen (10 μM), Melanoma; type: cell-based; details: Homo sapiens; 10 μM; MALME-3M, Melanoma; read-out: Growth percent rate
HT29 = assay: NCI60 one-dose screen (10 μM), Colon Cancer; type: cell-based; details: Homo sapiens, HT-29; 10 μM; HT29, Colon Cancer; read-out: Growth percent rate
SK-MEL-2 = assay: NCI60 one-dose screen (10 μM), Melanoma; type: cell-based; details: Homo sapiens; 10 μM; SK-MEL-2, Melanoma; read-out: Growth percent rate
RXF 393 = assay: NCI60 one-dose screen (10 μM), Renal Cancer; type: cell-based, human; details: Homo sapiens; 10 μM; RXF 393, Renal Cancer; read-out: Growth percent rate
KM12 = assay: NCI60 one-dose screen (10 μM), Colon Cancer; type: cell-based, human; details: Homo sapiens; 10 μM; KM12, Colon Cancer; read-out: Growth percent rate
SF-268 = assay: NCI60 one-dose screen (10 μM), CNS Cancer; type: cell-based; details: Homo sapiens; 10 μM; SF-268, CNS Cancer; read-out: Growth percent rate
DU-145 = assay: NCI60 one-dose screen (10 μM), Prostate Cancer; type: cell-based; details: Homo sapiens; 10 μM; DU-145, Prostate Cancer; read-out: Growth percent rate
SW-620 = assay: NCI60 one-dose screen (10 μM), Colon Cancer; type: cell-based; details: Homo sapiens; 10 μM; SW-620, Colon Cancer; read-out: Growth percent rate
M14 = assay: NCI60 one-dose screen (10 μM), Melanoma; type: cell-based; details: Homo sapiens; 10 μM; M14, Melanoma; read-out: Growth percent rate
SNB-75 = assay: NCI60 one-dose screen (10 μM), CNS Cancer; type: cell-based, human; details: Homo sapiens; 10 μM; SNB-75, CNS Cancer; read-out: Growth percent rate
MDA-MB-435 = assay: NCI60 one-dose screen (10 μM), Melanoma; type: cell-based; details: Homo sapiens; 10 μM; MDA-MB-435, Melanoma; read-out: Growth percent rate
LOX IMVI = assay: NCI60 one-dose screen (10 μM), Melanoma; type: cell-based, human; details: Homo sapiens; 10 μM; LOX IMVI, Melanoma; read-out: Growth percent rate
MOLT-4 = assay: NCI60 one-dose screen (10 μM), Leukemia; type: cell-based, human; details: Homo sapiens; 10 μM; MOLT-4, Leukemia; read-out: Growth percent rate
K-562 = assay: NCI60 one-dose screen (10 μM), Leukemia; type: cell-based; details: Homo sapiens, K562; 10 μM; K-562, Leukemia; read-out: Growth percent rate
NCI-H460 = assay: NCI60 one-dose screen (10 μM), Non-small Cell Lung Cancer; type: cell-based; details: Homo sapiens; 10 μM; NCI-H460, Non-small Cell Lung Cancer; read-out: Growth percent rate
SNB-19 = assay: NCI60 one-dose screen (10 μM), CNS Cancer; type: cell-based; details: Homo sapiens; 10 μM; SNB-19, CNS Cancer; read-out: Growth percent rate
HCT-15 = assay: NCI60 one-dose screen (10 μM), Colon Cancer; type: cell-based; details: Homo sapiens; 10 μM; HCT-15, Colon Cancer; read-out: Growth percent rate
NCI-H23 = assay: NCI60 one-dose screen (10 μM), Non-small Cell Lung Cancer; type: cell-based; details: Homo sapiens; 10 μM; NCI-H23, Non-small Cell Lung Cancer; read-out: Growth percent rate

`CC[C@]12C=CCN3CC[C@@]4(c5ccc(OC)cc5N(C)[C@H]4[C@@](O)(C(=O)OC)[C@@H]1OC(=O)CCCN1CCN(Cc4ccc(F)cc4)CC1)[C@@H]32` [Compound 24] showed an activity at 10 µM [1] of 20.4%, an activity at 10 µM (TK-10) of 42.6% and an activity at 10 µM (HL-60(TB)) of 7.68%. The activity at 10 µM (IGROV1) was 25.1%, the activity at 10 µM (U251) was 40.3% and the activity at 10 µM (A498) was 58.3%. The activity at 10 µM (COLO 205) was -59.6%, the activity at 10 µM (CCRF-CEM) was 12.7% and the activity at 10 µM (SK-MEL-28) was -45.3%. It also gave an activity at 10 µM (HOP-62) of 70.1%, an activity at 10 µM (OVCAR-8) of 66% and an activity at 10 µM (A549/ATCC) of 51.2%. The activity at 10 µM (MCF7) was 6.31%, the activity at 10 µM (RPMI-8226) was 20.1% and the activity at 10 µM (CAKI-1) was 5.13%. It also gave an activity at 10 µM (OVCAR-4) of 33%, an activity at 10 µM (ACHN) of 33.7% and an activity at 10 µM (SF-295) of 70.2%. It also gave an activity at 10 µM (NCI-H322M) of 71.7%, an activity at 10 µM (SK-MEL-5) of -98.3% and an activity at 10 µM (786–0) of 31.4%. It also gave an activity at 10 µM (UACC-257) of -72.7%, an activity at 10 µM (SF-539) of 14.7% and an activity at 10 µM (MALME-3M) of -97.2%. For the same compound, the activity at 10 µM (HT29) was 1.44%, the activity at 10 µM (SK-MEL-2) was -26.1% and the activity at 10 µM (RXF 393) was -8.13%. It also gave an activity at 10 µM (KM12) of 45.7%, an activity at 10 µM (SF-268) of 42.5% and an activity at 10 µM (DU-145) of 39.5%. It also gave an activity at 10 µM (SW-620) of 64.3%, an activity at 10 µM (M14) of -77.9% and an activity at 10 µM (SNB-75) of -0.13%. The activity at 10 µM (MDA-MB-435) was 38.7%, the activity at 10 µM (LOX IMVI) was 5.04% and the activity at 10 µM (MOLT-4) was 6.28%. The activity at 10 µM (K-562) was 0.4%, the activity at 10 µM (NCI-H460) was 30.6% and the activity at 10 µM (SNB-19) was 49.1%. The activity at 10 µM (HCT-15) was 15.7% and the activity at 10 µM (NCI-H23) was 74.4%.

Work on `CC[C@]12C=CCN3CC[C@@]4(c5ccc(OC)cc5N(C)[C@H]4[C@@](O)(C(=O)OC)[C@@H]1OC(=O)CCC(=O)N1CCN(c4ccc(C(F)(F)F)cc4)CC1)[C@@H]32` [Compound 28] yielded an activity at 10 µM [1] of -3.07%, an activity at 10 µM (TK-10) of -5.03% and an activity at 10 µM (HL-60(TB)) of 4.32%. It also gave an activity at 10 µM (IGROV1) of -42.3%, an activity at 10 µM (U251) of 12.4% and an activity at 10 µM (A498) of 21.6%. For the same compound, the growth percent rate (COLO 205; 10 μM one-dose, COLO-205 colon cancer, negative = lethality) was −90.33%, the activity at 10 µM (COLO 205) was -90.3% and the activity at 10 µM (CCRF-CEM) was 4.4%. The activity at 10 µM (SK-MEL-28) was 15%, the activity at 10 µM (HOP-62) was 30.4% and the activity at 10 µM (OVCAR-8) was 10.7%. It also gave an activity at 10 µM (A549/ATCC) of 13.6%, an activity at 10 µM (MCF7) of 3.97% and an activity at 10 µM (RPMI-8226) of 8.8%. The activity at 10 µM (CAKI-1) was -10.2%, the activity at 10 µM (OVCAR-4) was 6.5% and the activity at 10 µM (ACHN) was -3.87%. It also gave an activity at 10 µM (SF-295) of 1.73%, an activity at 10 µM (NCI-H322M) of 43.7% and a growth percent rate (SK-MEL-5; 10 μM one-dose, SK-MEL-5 melanoma, negative = lethality) of −92.46%. The activity at 10 µM (SK-MEL-5) was -92.5%, the activity at 10 µM (786–0) was 20.7% and the activity at 10 µM (UACC-257) was 19.5%. It also gave an activity at 10 µM (SF-539) of 8.28%, an activity at 10 µM (MALME-3M) of 2.45% and an activity at 10 µM (HT29) of -50.4%. The activity at 10 µM (SK-MEL-2) was -84.7%, the activity at 10 µM (RXF 393) was -12.9% and the activity at 10 µM (KM12) was 3.83%. For the same compound, the activity at 10 µM (SF-268) was 13.1%, the activity at 10 µM (DU-145) was 15.4% and the activity at 10 µM (SW-620) was 20.7%. The activity at 10 µM (M14) was -66.8%, the activity at 10 µM (SNB-75) was 26.2% and the activity at 10 µM (MDA-MB-435) was 5.7%. It also gave an activity at 10 µM (LOX IMVI) of -75.8%, an activity at 10 µM (MOLT-4) of 18.7% and an activity at 10 µM (K-562) of 16.9%. The activity at 10 µM (NCI-H460) was 1.83%, the activity at 10 µM (SNB-19) was 16.2% and the activity at 10 µM (HCT-15) was 6.71%. It also gave an activity at 10 µM (NCI-H23) of 8.32%.
